Reference: ChEMBL document CHEMBL5678816, “A Next-Generation TRK Kinase Inhibitor Overcomes Acquired Resistance to Prior TRK Kinase Inhibition in Patients with TRK Fusion-Positive Solid Tumors” (Cancer Discov, 2017)
Activity calls are given as the source filed them. No cut-off for these calls is given here.

Columns and labels:
[1] = target: Tyrosine-protein kinase ZAP-70 (Homo sapiens) (UniProt P43403); assay: Inhibition of ZAP-70 (unknown origin) at 1 uM in presence of ATP relative to control; values are per cent of control
[2] = target: Serine/threonine-protein kinase MRCK alpha (Homo sapiens) (UniProt Q5VT25); assay: Inhibition of MRCKalpha (unknown origin) at 1 uM in presence of ATP relative to control; values are per cent of control
Sequence of Serine/threonine-protein kinase MRCK alpha (Homo sapiens) (Q5VT25 whole entry): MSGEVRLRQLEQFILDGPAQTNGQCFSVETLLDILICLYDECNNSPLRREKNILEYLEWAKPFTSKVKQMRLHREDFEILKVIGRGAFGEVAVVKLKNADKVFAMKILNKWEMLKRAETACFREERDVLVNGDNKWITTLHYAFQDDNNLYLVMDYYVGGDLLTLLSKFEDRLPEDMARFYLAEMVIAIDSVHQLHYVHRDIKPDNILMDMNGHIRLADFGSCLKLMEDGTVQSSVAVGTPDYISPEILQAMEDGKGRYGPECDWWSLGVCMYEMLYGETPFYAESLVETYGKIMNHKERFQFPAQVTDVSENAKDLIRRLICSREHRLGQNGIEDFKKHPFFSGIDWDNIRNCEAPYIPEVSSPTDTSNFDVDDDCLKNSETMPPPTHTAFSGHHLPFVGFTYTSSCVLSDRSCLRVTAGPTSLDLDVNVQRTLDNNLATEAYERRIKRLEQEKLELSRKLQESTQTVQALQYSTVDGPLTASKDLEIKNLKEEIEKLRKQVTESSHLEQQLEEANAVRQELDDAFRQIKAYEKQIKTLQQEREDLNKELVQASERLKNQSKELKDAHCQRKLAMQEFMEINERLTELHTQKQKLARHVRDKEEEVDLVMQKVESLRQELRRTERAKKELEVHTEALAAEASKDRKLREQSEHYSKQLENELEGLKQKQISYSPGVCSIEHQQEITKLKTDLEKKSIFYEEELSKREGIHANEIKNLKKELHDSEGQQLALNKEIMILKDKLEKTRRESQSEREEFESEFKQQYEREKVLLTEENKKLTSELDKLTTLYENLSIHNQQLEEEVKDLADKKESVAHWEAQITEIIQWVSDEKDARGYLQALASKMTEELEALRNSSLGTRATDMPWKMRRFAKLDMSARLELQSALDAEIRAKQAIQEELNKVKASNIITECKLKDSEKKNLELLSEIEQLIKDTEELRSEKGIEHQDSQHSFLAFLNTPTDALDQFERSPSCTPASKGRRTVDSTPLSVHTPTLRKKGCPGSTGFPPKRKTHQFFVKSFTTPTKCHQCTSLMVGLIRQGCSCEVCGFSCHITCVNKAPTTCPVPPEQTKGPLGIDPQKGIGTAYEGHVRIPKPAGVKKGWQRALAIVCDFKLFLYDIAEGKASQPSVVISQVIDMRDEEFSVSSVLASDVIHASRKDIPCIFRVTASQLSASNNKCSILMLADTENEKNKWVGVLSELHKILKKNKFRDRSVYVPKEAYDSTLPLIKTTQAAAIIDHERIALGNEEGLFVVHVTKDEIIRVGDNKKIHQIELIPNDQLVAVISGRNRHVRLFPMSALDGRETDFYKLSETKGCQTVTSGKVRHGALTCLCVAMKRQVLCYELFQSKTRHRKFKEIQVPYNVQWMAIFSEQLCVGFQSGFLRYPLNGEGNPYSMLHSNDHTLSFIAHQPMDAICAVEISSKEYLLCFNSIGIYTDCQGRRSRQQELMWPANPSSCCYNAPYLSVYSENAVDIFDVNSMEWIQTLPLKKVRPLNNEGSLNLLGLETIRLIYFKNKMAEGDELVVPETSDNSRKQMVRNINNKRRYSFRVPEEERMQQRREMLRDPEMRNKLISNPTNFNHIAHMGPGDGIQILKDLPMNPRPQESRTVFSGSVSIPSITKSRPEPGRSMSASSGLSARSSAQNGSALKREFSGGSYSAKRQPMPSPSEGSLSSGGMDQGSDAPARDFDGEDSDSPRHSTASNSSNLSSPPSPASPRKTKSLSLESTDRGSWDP

[3] = target: Proto-oncogene tyrosine-protein kinase ROS (Homo sapiens) (UniProt P08922); assay: Inhibition of Ros (unknown origin) at 1 uM in presence of ATP relative to control
CAL-62 = assay: Inhibition of cell proliferation in human CAL-62 cells upto 10 umol/L incubated for 72 hrs by DAPI staining based analysis; format: functional; conditions: dose <= 10.0 µmol/L
[4] = target: Serine/threonine-protein kinase BRSK2 (Homo sapiens) (UniProt Q8IWQ3); assay: Inhibition of BrSK2 (unknown origin) at 1 uM in presence of ATP relative to control; values are per cent of control
[5] = target: Rho-associated protein kinase 2 (Homo sapiens) (UniProt O75116); assay: Inhibition of ROCK-II (unknown origin) at 1 uM in presence of ATP relative to control; values are per cent of control
Sequence of Rho-associated protein kinase 2 (Homo sapiens) (O75116 whole entry, looked up): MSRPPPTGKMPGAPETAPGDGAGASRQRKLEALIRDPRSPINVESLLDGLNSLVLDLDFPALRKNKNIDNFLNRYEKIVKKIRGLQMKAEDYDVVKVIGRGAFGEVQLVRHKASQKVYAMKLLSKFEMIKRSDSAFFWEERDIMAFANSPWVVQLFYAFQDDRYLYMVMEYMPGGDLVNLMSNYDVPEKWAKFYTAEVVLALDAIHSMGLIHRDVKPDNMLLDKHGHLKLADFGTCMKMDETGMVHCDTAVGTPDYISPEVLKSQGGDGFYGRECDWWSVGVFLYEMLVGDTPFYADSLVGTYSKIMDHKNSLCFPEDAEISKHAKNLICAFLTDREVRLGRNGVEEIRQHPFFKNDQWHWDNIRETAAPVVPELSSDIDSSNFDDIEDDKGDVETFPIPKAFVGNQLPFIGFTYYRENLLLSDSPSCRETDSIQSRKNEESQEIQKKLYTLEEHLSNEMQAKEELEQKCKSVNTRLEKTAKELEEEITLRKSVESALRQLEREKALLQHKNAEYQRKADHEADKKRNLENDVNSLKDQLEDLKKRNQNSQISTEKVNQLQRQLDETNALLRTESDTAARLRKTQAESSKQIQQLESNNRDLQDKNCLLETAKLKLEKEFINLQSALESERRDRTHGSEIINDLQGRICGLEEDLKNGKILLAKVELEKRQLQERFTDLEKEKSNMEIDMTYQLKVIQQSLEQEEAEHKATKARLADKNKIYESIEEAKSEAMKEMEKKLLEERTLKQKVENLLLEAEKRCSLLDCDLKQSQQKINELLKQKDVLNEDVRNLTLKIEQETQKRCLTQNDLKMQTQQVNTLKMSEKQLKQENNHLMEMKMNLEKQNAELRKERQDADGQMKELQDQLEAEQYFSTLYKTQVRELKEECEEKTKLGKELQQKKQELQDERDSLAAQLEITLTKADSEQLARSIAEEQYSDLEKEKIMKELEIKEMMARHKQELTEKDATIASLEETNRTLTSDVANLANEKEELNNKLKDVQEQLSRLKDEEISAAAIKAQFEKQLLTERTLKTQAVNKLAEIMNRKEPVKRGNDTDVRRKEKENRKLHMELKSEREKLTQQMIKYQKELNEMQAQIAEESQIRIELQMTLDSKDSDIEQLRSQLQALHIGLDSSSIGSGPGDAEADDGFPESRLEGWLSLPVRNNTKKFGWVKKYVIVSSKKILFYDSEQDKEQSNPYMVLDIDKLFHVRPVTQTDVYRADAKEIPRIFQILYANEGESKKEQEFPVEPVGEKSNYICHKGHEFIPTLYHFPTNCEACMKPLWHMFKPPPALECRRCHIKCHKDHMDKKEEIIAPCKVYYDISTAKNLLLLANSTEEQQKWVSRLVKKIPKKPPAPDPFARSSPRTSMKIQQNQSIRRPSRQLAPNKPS

A 172 = assay: Inhibition of cell proliferation in human A-172 cells upto 10 umol/L incubated for 72 hrs by DAPI staining based analysis; format: functional; conditions: dose <= 10.0 µmol/L
SHP77 = assay: Inhibition of cell proliferation in human SHP77 cells upto 10 umol/L incubated for 72 hrs by DAPI staining based analysis; format: functional; conditions: dose <= 10.0 µmol/L
[6] = target: Fibroblast growth factor receptor 2 (Homo sapiens) (UniProt P21802); assay: Inhibition of FGFR2 (unknown origin) at 1 uM in presence of ATP relative to control; values are per cent of control
Sequence of Fibroblast growth factor receptor 2 (Homo sapiens) (P21802 22-821 limits assumed): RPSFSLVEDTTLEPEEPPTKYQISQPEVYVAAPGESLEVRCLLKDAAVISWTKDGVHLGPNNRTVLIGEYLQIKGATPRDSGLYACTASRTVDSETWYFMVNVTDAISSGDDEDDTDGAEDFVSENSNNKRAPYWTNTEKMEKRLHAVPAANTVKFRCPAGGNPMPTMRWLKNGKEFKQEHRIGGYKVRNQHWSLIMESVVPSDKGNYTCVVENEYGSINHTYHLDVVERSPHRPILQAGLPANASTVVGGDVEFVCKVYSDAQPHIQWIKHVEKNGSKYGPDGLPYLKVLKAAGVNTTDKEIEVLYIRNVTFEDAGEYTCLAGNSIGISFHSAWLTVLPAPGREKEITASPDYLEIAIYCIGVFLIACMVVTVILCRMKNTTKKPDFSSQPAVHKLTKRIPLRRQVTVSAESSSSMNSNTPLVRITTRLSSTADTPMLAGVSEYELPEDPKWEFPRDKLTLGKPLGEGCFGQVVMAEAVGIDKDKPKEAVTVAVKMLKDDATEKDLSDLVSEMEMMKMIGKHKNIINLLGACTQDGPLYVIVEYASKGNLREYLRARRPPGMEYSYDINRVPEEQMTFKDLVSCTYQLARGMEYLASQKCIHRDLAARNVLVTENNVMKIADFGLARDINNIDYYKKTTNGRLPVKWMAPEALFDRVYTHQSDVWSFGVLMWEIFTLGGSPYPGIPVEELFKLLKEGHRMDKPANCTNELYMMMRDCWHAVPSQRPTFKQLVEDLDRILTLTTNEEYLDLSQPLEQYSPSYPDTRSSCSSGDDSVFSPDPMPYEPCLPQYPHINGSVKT

[7] = target: Fibroblast growth factor receptor 3 (Homo sapiens) (UniProt P22607); assay: Inhibition of FGFR3 (unknown origin) at 1 uM in presence of ATP relative to control; values are per cent of control
[8] = target: CDK9/cyclin T1 (Homo sapiens) (UniProt O60563+P50750); assay: Inhibition of CDK9/cyclinT1 (unknown origin) at 1 uM in presence of ATP relative to control; values are per cent of control
AN3-CA = assay: Inhibition of cell proliferation in human AN3-CA cells upto 10 umol/L incubated for 72 hrs by DAPI staining based analysis; format: functional; conditions: dose <= 10.0 µmol/L
[9] = Toxicity in nu/nu NCr mouse xenografted with human KM12 cells harboring TPM3-TRKA fusion protein assessed as body weight loss at 30 to 300 mg/kg, po administered twice daily for 11 days relative to control; format: organism-based; conditions: in vivo, 264 h, dose 30-300 mg/kg, time 11 day
BT-474 = assay: Inhibition of cell proliferation in human BT-474 cells upto 10 umol/L incubated for 72 hrs by DAPI staining based analysis; format: functional; conditions: dose <= 10.0 µmol/L
[10] = target: Serine/threonine-protein kinase Sgk2 (Homo sapiens) (UniProt Q9HBY8); assay: Inhibition of SGK2 (unknown origin) at 1 uM in presence of ATP relative to control; values are per cent of control
[11] = target: Mitogen-activated protein kinase kinase kinase 5 (Homo sapiens) (UniProt Q99683); assay: Inhibition of MAP3K5 (unknown origin) at 1 uM in presence of ATP relative to control; values are per cent of control
[12] = target: Interleukin-1 receptor-associated kinase 4 (Homo sapiens) (UniProt Q9NWZ3); assay: Inhibition of IRAK4 (unknown origin) at 1 uM in presence of ATP relative to control; values are per cent of control
Sequence of Interleukin-1 receptor-associated kinase 4 (Homo sapiens) (Q9NWZ3 whole entry): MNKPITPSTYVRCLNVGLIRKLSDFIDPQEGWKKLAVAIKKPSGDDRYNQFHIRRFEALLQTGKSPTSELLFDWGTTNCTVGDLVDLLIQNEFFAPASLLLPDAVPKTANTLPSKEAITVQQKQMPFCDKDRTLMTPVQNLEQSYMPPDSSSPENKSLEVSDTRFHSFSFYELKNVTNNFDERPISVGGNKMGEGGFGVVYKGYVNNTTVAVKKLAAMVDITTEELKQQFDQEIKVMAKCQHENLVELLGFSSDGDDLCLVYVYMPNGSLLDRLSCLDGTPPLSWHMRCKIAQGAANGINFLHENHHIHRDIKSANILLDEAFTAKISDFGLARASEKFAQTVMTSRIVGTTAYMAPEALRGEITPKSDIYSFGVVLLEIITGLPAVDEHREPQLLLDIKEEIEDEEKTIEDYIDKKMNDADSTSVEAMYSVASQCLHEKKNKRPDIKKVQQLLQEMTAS

[13] = target: cAMP-dependent protein kinase catalytic subunit alpha (Homo sapiens) (UniProt P17612); assay: Inhibition of PKAC-alpha (unknown origin) at 1 uM in presence of ATP relative to control; values are per cent of control
[14] = target: Myosin light chain kinase, smooth muscle (Homo sapiens) (UniProt Q15746); assay: Inhibition of MYLK (unknown origin) at 1 uM in presence of ATP relative to control; values are per cent of control
[15] = target: RAC-alpha serine/threonine-protein kinase (Homo sapiens) (UniProt P31749); assay: Inhibition of AKT1 (unknown origin) at 1 uM in presence of ATP relative to control; values are per cent of control
Sequence of RAC-alpha serine/threonine-protein kinase (Homo sapiens) (P31749 whole entry, the tested form may be a part): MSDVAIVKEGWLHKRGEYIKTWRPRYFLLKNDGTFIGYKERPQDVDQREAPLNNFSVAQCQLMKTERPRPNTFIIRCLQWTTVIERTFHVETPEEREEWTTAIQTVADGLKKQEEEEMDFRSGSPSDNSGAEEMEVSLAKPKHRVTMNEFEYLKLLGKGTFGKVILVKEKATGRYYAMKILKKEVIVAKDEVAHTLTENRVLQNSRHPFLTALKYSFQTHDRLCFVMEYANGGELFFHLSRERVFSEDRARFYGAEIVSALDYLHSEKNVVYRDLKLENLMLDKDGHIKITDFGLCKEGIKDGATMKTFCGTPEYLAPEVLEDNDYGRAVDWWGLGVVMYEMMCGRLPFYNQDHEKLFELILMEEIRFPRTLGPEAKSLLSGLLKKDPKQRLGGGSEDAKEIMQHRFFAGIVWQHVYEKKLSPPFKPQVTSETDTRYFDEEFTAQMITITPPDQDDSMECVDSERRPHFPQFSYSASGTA

NIH3T3 = assay: In vivo inhibition of […] in nu/nu NCr mouse implanted with mouse NIH3T3 cells harboring extracellular domain deleted […] assessed as reduction in […] phosphorylation at 60 mg/kg, po administered once daily for 3 days and measured after 2 hrs post last dose by ELISA; format: functional, organism-based; conditions: time 3.0 day
[16] = target: Muscle, skeletal receptor tyrosine-protein kinase (Homo sapiens) (UniProt O15146); assay: Inhibition of MUSK (unknown origin) at 1 uM in presence of ATP relative to control; values are per cent of control
[17] = target: Tyrosine-protein kinase TXK (Homo sapiens) (UniProt P42681); assay: Inhibition of Txk (unknown origin) at 1 uM in presence of ATP relative to control
OE19 = assay: Inhibition of cell proliferation in human OE19 cells upto 10 umol/L incubated for 72 hrs by DAPI staining based analysis; format: functional; conditions: dose <= 10.0 µmol/L
[18] = target: Receptor-type tyrosine-protein kinase FLT3 (Homo sapiens) (UniProt P36888); assay: Inhibition of FLt3 (unknown origin) at 1 uM in presence of ATP relative to control; values are per cent of control
SCC-9 = assay: Inhibition of cell proliferation in human SCC-9 cells upto 10 umol/L incubated for 72 hrs by DAPI staining based analysis; format: functional; conditions: dose <= 10.0 µmol/L
DMS-53 = assay: Inhibition of cell proliferation in human DMS-53 cells upto 10 umol/L incubated for 72 hrs by DAPI staining based analysis; format: functional; conditions: dose <= 10.0 µmol/L
SK-MEL-28 = assay: Inhibition of cell proliferation in human SK-MEL-28 cells upto 10 umol/L incubated for 72 hrs by DAPI staining based analysis; format: functional; conditions: dose <= 10.0 µmol/L
[19] = target: Serine/threonine-protein kinase PAK 2 (Homo sapiens) (UniProt Q13177); assay: Inhibition of PAK2 (unknown origin) at 1 uM in presence of ATP relative to control; values are per cent of control
[20] = target: Serine/threonine-protein kinase 24 (Homo sapiens) (UniProt Q9Y6E0); assay: Inhibition of MST3 (unknown origin) at 1 uM in presence of ATP relative to control; values are per cent of control

residual activity [1]: 118% | residual activity [2]: 138% | inhibition [3]: 12% | residual activity [4]: 124% | residual activity [5]: 105% | residual activity [6]: 96.5% | residual activity [7]: 119% | residual activity [8]: 110% | residual activity [10]: 136% | residual activity [11]: 106% | residual activity [12]: 95% | residual activity [13]: 109% | residual activity [14]: 109% | residual activity [15]: 120% | residual activity [16]: 89.5% | inhibition [17]: 14% | residual activity [18]: 85.5% | residual activity [19]: 108% | residual activity [20]: 125%
SMILES: C[C@@H]1CCc2ncc(F)cc2[C@H]2CCCN2c2ccn3ncc(c3n2)C(=O)N1 [SELITRECTINIB]
inhibition (CAL-62): inactive | inhibition (A 172): inactive | inhibition (SHP77): inactive | inhibition (AN3-CA): inactive | Activity [9]: < 5% | inhibition (BT-474): inactive | inhibition (NIH3T3): Active | inhibition (OE19): inactive | inhibition (SCC-9): inactive | inhibition (DMS-53): inactive | inhibition (SK-MEL-28): inactive
